Source: patent US20030064967A1 (priority 2001, published 2003)
“And” between values parts separate entries of the source, which are not always exact repeats. Identical values can stand only once.

Assays:
[1] = tested on: HepG2 cells; assay: Cell culture assay and ELISA for apoAI HDL increase in HepG2 cells; assay type: cell-based, human
Procedure: A cell culture assay and ELISA was conducted to measure apoAi HDL increase in HepG2 cells were obtained from the American Type Culture Collection (Rockville, Md.). Fetal bovine serum (FBS) was purchased from Gibco Laboratories. Cells were cultured in minimum essential medium (MEM) containing 10% FBS, and 100 μg/mL of streptomycin, 100 unit/mL of penicillin, and 4 mM of glutamine (Gibco/BRL). Cells were grown for 2 days till they are 80% confluent in 6-well, or 12-well plates before studies. In all cases medium was changed every other day. To measure apoAI, 96-well microtiter plates were coated with a 1:1000 diluted mixture of three monoclonal antibodies against human apoAI (A05, A17, and A44) for 2 h and incubated in succession with HDL3 (0 to 15 ng/well), sheep polyclonal anti-apoAI serum (Boehringer Mannheim), alkaline phosphatase-labeled rabbit anti-sheep (Cappel), and p-nitrophenyl phosphate (1 mg/mL in 10 mmol/L ethanolamine, 0.5 mmol/L MgCl2, pH 9.5), for 2, 1 and 1 h respectively at 37° C. The plates were washed three times between different incubations. The absorbance at 405 nm was determined by using a Bio-Rad model 550 microplate reader (Bio-Rad).

[2] = tested on: HepG2 cells; assay: Uptake of 3[H]cholesteryl hexadecyl ether-labeled HDL in HepG2 cells; assay type: cell-based; conditions: for % 3[H]-CE uptake: 12.5 μM compound, 20-50 μg/mL 3[H]-CE HDL, 3.5 h, 37° C.; for clearance / selective uptake of cholesteryl ester: HepG2 cells
Procedure: An in vitro assay was conducted to measure the uptake of ^3[H]cholesteryl Hexadecyl Ether-labeled HDL in HepG2 cells. ^3[H]cholesteryl Hexadecyl Ether-labeled HDL was prepared as described by Rodrigueza et al. (Rodrigueza W. V. et al. (1999) J. Biol. Chem. 274:20344-20350). 40 μCi of ^3[H]hexadecyl ether (40-60 Ci/mmol, NEN life Sciences Products) were incubated with 5 mg of HDL3 and 240 mg of heat-inactivated lipoprotein-deficient plasma, 0.01% aprotinin in a polypropylene tube sealed with nitrogen gas for 40 h at 37° C. according to the method of Terpstra et al . ^3[H]-CE enriched HDL was re-isolated by flotation ultracentrifugation and dialyzed against phosphate-buffered saline (PBS). To perform CE uptake studies, HepG2 cells, seeded in 6 or 12 well plates were grown for 2 days till 80% confluent and, then treated with compounds in 1% RSA-DMEM medium for 24 h. The next day, cells were treated with 12.5 μM compounds and 20-50 μg/mL of ^3[H]-CE HDL for 3.5 h at 37° C. After incubation, cells were washed 4 times with PBS/BSA and 2 times with PBS, followed by addition of 0.1 N NAOH. Cells were collected, and radioactivity was measured in counts per minute and expressed as percent of ^3[H]-CE delivered to cells.

[3] = tested on: HepG2 cells; assay: Internalization and degradation of 125I-HDL3 by HepG2 cells; assay type: cell-based
Procedure: In another aspect of the invention, compounds that increase the levels of plasma HDL holoproteins can be selected using the following process. First, the compound is added to a hepatic model, preferably hepatic cells, more preferably HepG2 cells. Labeled apoAI-HDL, preferably a radioactive isotope label, more preferably ^125I, in the presence or absence of compounds is then added to the cells. The […] labeled apoAI-HDL in the conditioned medium represents degraded labeled apoAI-HDL. After washing and detaching, cells are centrifuged. Labeled apoAI-HDL in the cellular fraction represents internalized HDL holoprotein; whereas, label in the supernatant represents cell surface bound apoAI-HDL that has been dissociated. Increased amounts of labeled HDL in cells treated with compounds versus cells not treated with compounds indicates increased degradation, internalization, or binding to the cell surface. Compounds are selected which […] the amount of apoAI-HDL label in the cellular fraction of the cells contacted with a test compound compared to the amount of label in the cellular fraction of the cells not contacted with the test compound.
In another aspect of the invention, compounds that increase the levels of plasma HDLc can be selected by contacting a hepatic model, preferably hepatic cells, more preferably HepG2 cells with test compounds. Labeled apoAI-HDL, preferably a radioactive isotope label, more preferably ^125I, in the presence or absence of compounds is then added to the cells. Label in the conditioned medium represents degraded labeled-HDL. After washing and detaching, cells are centrifuged. Label in the cellular fraction represents internalized HDL holoprotein; whereas, label in the supernatant represents cell surface bound apoAI-HDL that has been dissociated. Increased amounts of label in cells treated with compounds versus cells not treated with compounds indicates increased degradation, internalization, or binding of apoAI-HDL to the cell surface. […]

[4] = tested on: apoAI; assay: Synthesis of apoAI
[5] = tested on: hypercholesterolemic hamsters; assay type: in vivo
Procedure: The following assay was conducted to HDL elevation in hamsters. Male Golden Syrian hamsters weighing 110-120 g were obtained from Charles River Laboratories (Wilmington, Mass.). Hamsters were housed individually with wood chip bedding and soft nesting material with lights on a 6 A.M. and off at 6 p.m. Upon arrival the hamsters were acclimated for three days on standard rodent chow and water (Purina rodent chow 5001) ad libitum. Prior to dosing, the hamsters were made hypercholesterolemic by feeding them a powdered diet supplemented with 0.5% cholesterol and 10% coconut oil (Harlan Teklad diet #97235) for one week. Water was added to the powdered chow to form a paste and the chow paste rolled into balls with each animal receiving 20 g of chow paste per day in stainless steel bowls. Chow intake was recorded daily. Body weights were recorded after one week and at the end of the end of the study. Hamsters were distributed into treatment groups after the one-week pretreatment period such that each group had similar average body weights.
Compounds were added to a high cholesterol chow paste and administered as an admixture at the same time each morning for two weeks. At the end of the treatment period the hamsters were fasted in the late afternoon on the day prior to blood collection. Fasting was achieved by transferring the hamsters to clean cages and removing chow stored in cheek pouches. Hamsters were anesthetized with ketamine/rompun solution. When unresponsive to toe pinch and still respiring, blood was collected via cardiac puncture from which plasma was separated and frozen at −80° C.
Lipoproteins were isolated from whole plasma by Fast Phase Liquid Chromatography (FPLC). Cholesterol and triglyceride concentrations in the different lipoprotein fractions were determined by enzymatic methods using a CX-5 chemical analyzer and standard Beckman reagents.
A Dunnetts test was used to compare the experimental and control groups. P<0.05: was considered significant.

[6] = tested on: human apo A-1 transgenic mice; assay: HDL cholesterol and human apoAI levels in human apo-A1 transgenic mice (InVivo II); assay type: in vivo
Procedure: The following assay was conducted to evaluate the effect of Compound A on HDL cholesterol levels in Human apo-A1 transgenic mice. Six-eight week old male human apo A-1 transgenic mice (catolog number JR 1927) were obtained from Jackson Labs. Upon arrival the mice were acclimated for three days on standard rodent diet and water ad libitum. Mice were then given a diet supplemented with 1.25% cholesterol, 7.5% cocoa butter and 0.5% sodium cholate for two weeks. Compound A was administered to the animals by gavage in methylcellulose at a dose of 150 mg/kg/d for two weeks concomitant with the high fat diet. At the end of the treatment period the mice were fasted overnight and then euthanized by CO2 inhalation. Blood was collected by cardiac puncture. Plasma was fractionated by fast phase liquid chromatography and cholesterol in the different lipoprotein fractions determined by an enzymatic assay. An ELISA was completed shoing an increase of h-apoAI of 65%.

[7] = assay type: in vivo; conditions: one study; 150 mg/kg/d by gavage in methylcellulose

Q: For `CC(C)(Sc1cc(C(C)(C)C)c(O)c(C(C)(C)C)c1)Sc1cc(C(C)(C)C)c(OC(=O)COCC(=O)O)c(C(C)(C)C)c1` [Compound C, Carboxymethoxyacetic Acid, mono[4-[1-[[3,5-bis(1,1-dimethylethyl)-4-hydroxyphenyl]thio]-1-methyl-ethyl]-thio-2,6-bis(1,1-dimethylethyl)phenyl]ester], which “% increase apoAI HDL” value [1] is on record?
A: The value was 47%.

Q: Which results are given for `CC(C)(Sc1cc(C(C)(C)C)c(O)c(C(C)(C)C)c1)Sc1cc(C(C)(C)C)c(O)c(C(C)(C)C)c1` [Probucol, 4,4′-(isopropylidenedithio) bis(2,6-di-tert-butylphenol), reference compound]?
A: % increase apoAI HDL [1]: −21%; % 3[H]-CE uptake [2]: 13%; internalization of 125I-HDL3 / HDL holoprotein uptake [3]: reduced HDL holoprotein uptake; effect on synthesis of apoAI [4]: reduced the synthesis of apoAI

Q: Which “HDLc elevation, range of three experiments” value ([5]; 150 mg/kg/d, two weeks) does the source give for `CC(C)(Sc1cc(C(C)(C)C)c(O)c(C(C)(C)C)c1)Sc1cc(C(C)(C)C)c(OC(=O)CCCC(=O)O)c(C(C)(C)C)c1` [Compound A, Pentanedioic Acid, mono[4-[[1-[[3,5-bis(1,1-dimethylethyl)-4-hydroxyphenyl]thio]-1-methylethyl]thio]-2,6-bis(1,1-dimethylethyl)phenyl]ester] here?
A: Its value is 5-44%.

Q: And the body weight ([5]; 150 mg/kg/d, two weeks)?
A: Its body weight is “all animals gained weight”.

Q: What about the tolerability ([5]; 150 mg/kg/d, two weeks) of the same compound?
A: The tolerability was “well tolerated”.

Q: And the “HDLc elevation compared to untreated controls” value ([5]; average of three experiments, 150 mg/kg/d, two weeks, in chow)?
A: Its value is 22%.

Q: And the “LDLc reduction compared to controls” value ([5]; average, n=3, 150 mg/kg/d, two weeks)?
A: Its value is 29%.

Q: What about the “increase in HDL cholesterol levels (FIG. 1)” value ([5]; hypercholesterolemic hamsters) of the same compound?
A: The value was 24%.

Q: And the “VLDL cholesterol reduction compared to controls” value ([5]; n=3, 150 mg/kg/d, two weeks)?
A: The value was 42%.

Q: What about the “VLDL cholesterol reduction, range” value ([5]; n=3, 150 mg/kg/d, two weeks) of the same compound?
A: Its value is 22-53%.

Q: And the “triglycerides reduction compared to controls” value ([5]; n=3, 150 mg/kg/d, two weeks)?
A: The value was 24%.

Q: And the “triglycerides reduction, range” value ([5]; n=3, 150 mg/kg/d, two weeks)?
A: Its value is 7-33%.

Q: What about the “increase of human apoAI (ELISA)” value ([6]; 150 mg/kg/d by gavage, two weeks, high fat diet) of the same compound?
A: The value was 64% and 65%.

Q: What about the “increase in HDL cholesterol (FIG. 7)” value ([6]; hypercholesterolemic human apo-AI transgenic mice) of the same compound?
A: Its value is 71%.

Q: And the “% increase apoAI HDL” value [1]?
A: Its value is 33%.

Q: What about the “% 3[H]-CE uptake” value [2] of the same compound?
A: Its value is 42%.

Q: What about the “clearance / selective uptake of cholesteryl ester” value [2] of the same compound?
A: The value was “enhance the clearance of cholesteryl ester”.

Q: What about the “degradation of 125I-HDL3” value [3] of the same compound?
A: Its value is “decreases degradation”.

Q: What about the “internalization of 125I-HDL3 / HDL holoprotein uptake” value [3] of the same compound?
A: The value was “decreases internalization”.

Q: With `COC(=O)CCCC(=O)Oc1c(C(C)(C)C)cc(SC(C)(C)Sc2cc(C(C)(C)C)c(O)c(C(C)(C)C)c2)cc1C(C)(C)C` [Compound D, Pentanedioic Acid, [4-[1-[[3,5-bis(1,1-dimethylethyl)-4-hydroxyphenyl]thio]-1-methylethyl]-thio-2,6-bis(1,1-dimethylethyl)phenyl], Methyl Ester] as the compound, how does the “% increase apoAI HDL” value [1] read?
A: The value was 27%.

Q: Which results are given for `CC(C)(Sc1cc(C(C)(C)C)c(O)c(C(C)(C)C)c1)Sc1cc(C(C)(C)C)c(OC(=O)CCCOS(=O)(=O)[O-])c(C(C)(C)C)c1.[Na+]` [Compound B, 4-[4-[1-[[3,5-bis(1,1-dimethylethyl)-4-hydroxyphenyl]thio]-1-methylethyl]-thio-2,6-bis-(1,1-dimethyl-ethyl)phenoxy]-4-oxo-1-butyl Sodium Sulfate]?
A: % increase apoAI HDL [1]: 26%; % 3[H]-CE uptake [2]: 44%; clearance / selective uptake of cholesteryl ester [2]: enhance the clearance of cholesteryl ester; mortality [7]: all of the mice died
